In US9095587B2, “Methods and compositions for improved nerve conduction velocity” (Spinifex Pharmaceuticals Pty Ltd, priority 2010, dated 2015):
“And” between values parts separate entries of the source, which are not always exact repeats. Equal values may be shown once. Where a name gives a salt, the structure may show the parent alone.

How the values were obtained:
[1] = system: diabetic rats; test: Sciatic motor nerve conduction velocity in STZ-diabetic rats; type: in vivo, rat; conditions: for Motor NCV, Mean: group mean of 10 diabetic rats; for Motor NCV, Mean / Motor NCV: last 2 weeks of 8 weeks diabetes; for Motor NCV: individual diabetic rats
Description: (§1) Methods: Diabetes was induced in mature (19 week old) male Sprague-Dawley by a single STZ injection (40-45 mg/kg i.p.). The diabetic state was monitored weekly using commercially available test strips for blood (tail vein) and urine glucose levels. Body weight was also monitored daily. The criteria for the diabetic state were: blood glucose>19.9 mM, glycosuria, and no evidence of body weight gain.
(§2) In final experiments, rats were anaesthetized with thiobutabarbital (50-100 mg kg-1 i.p.) The trachea was cannulated for artificial respiration. The level of anaesthesia was monitored by observing any reaction of blood pressure to manipulation, supplementary thiobutabarbital anaesthetic being given as necessary. As described in detail by Cameron et al., (Q. J. Expt Physiol, 74; 917-926, 1989 and Diabetes, 40:532-539, 1991), the sciatic nerve was exposed between the sciatic notch and knee. Bipolar stimulating electrodes were placed close to the nerve at the notch and knee. A concentric bipolar electrode was inserted into tibialis anterior muscle to monitor evoked electromyographic (EMG) activity. Potentials evoked from each stimulating site were averaged 8 times. Motor nerve conduction velocity (NCV) was calculated by dividing the distance between stimulating electrodes by the average latency difference between the onsets of EMG potentials evoked from the 2 sites. Nerve temperature was monitored using a thermocouple probe, and maintained in the range 36-38° C. by radiant heat. Body temperature was also maintained around 37° C. using a heated blanket.
(§3) Methods: Diabetes was induced in mature (19 week old) male Sprague-Dawley by a single STZ injection (40-45 mg/kg i.p.). The diabetic state was monitored weekly using commercially available test strips for blood (tail vein) and urine glucose levels. Body weight was also be monitored daily. The criteria for the diabetic state were: blood glucose>19.9 mM, glycosuria, and no evidence of body weight gain.
as §2, with “necessary. The” for “necessary. As described in detail by Cameron et al., (Q. J. Expt Physiol, 74; 917-926, 1989 and Diabetes, 40:532-539, 1991), the”, “averaged […]” for “averaged 8”, “Motor NCV” for “Motor nerve conduction velocity (NCV)”, “blanket. Sensory NCV was measured for sensory saphenous nerve between groin and mid-calf in a similar fashion, except that direct nerve evoked potentials were recorded at the ankle using a unipolar platinum hook electrode. Reference values for comparison of the NCV data were obtained from nondiabetic control and 8 week diabetic control rats.” for “blanket.”
(§4) Diabetes was induced in mature (19 week old) male Sprague-Dawley by a single STZ injection (40-45 mg/kg i.p.). The diabetic state was monitored weekly using commercially available test strips for blood (tail vein) and urine glucose levels. Body weight was also monitored daily. The criteria for the diabetic state were: blood glucose>19.9 mM, glycosuria, and no evidence of body weight gain.
In final experiments, rats were anaesthetized with thiobutabarbital (50-100 mg kg-1 i.p.) The trachea was cannulated for artificial respiration. […]

[2] = system: diabetic rats; test: Saphenous sensory nerve conduction velocity in STZ-diabetic rats; type: in vivo, rat; conditions: for Sensory NCV, Mean: group mean of 10 diabetic rats; for Sensory NCV, Mean / Sensory NCV: last 2 weeks of 8 weeks diabetes; for Sensory NCV: individual diabetic rats
Description: as §1
Sensory NCV was measured for sensory saphenous nerve between groin and mid-calf in a similar fashion, except that direct nerve evoked potentials were recorded at the ankle using a unipolar platinum hook electrode.
as §3
as §2, with “necessary. The” for “necessary. As described in detail by Cameron et al., (Q. J. Expt Physiol, 74; 917-926, 1989 and Diabetes, 40:532-539, 1991), the”, “averaged […]” for “averaged 8”, “Motor NCV” for “Motor nerve conduction velocity (NCV)”, “blanket. Sensory NCV was measured for sensory saphenous nerve between groin and mid-calf in a similar fashion, except that direct nerve evoked potentials were recorded at the ankle using a unipolar platinum hook electrode. Reference values for comparison of the NCV data were obtained from nondiabetic control and 8 week diabetic control rats.” for “blanket.”
as §4
as §2, with “The” for “As described in detail by Cameron et al., (Q. J. Expt Physiol, 74; 917-926, 1989 and Diabetes, 40:532-539, 1991), the”, “NCV” for “nerve conduction velocity (NCV)”, “blanket. Sensory NCV was measured for sensory saphenous nerve between groin and mid-calf in a similar fashion, except that direct nerve evoked potentials were recorded at the ankle using a unipolar platinum hook electrode. […]” for “blanket.”

[3] = Body weight, blood glucose and general condition of treated diabetic rats; type: in vivo, rat; conditions: for End weight, Mean: group mean of 10 diabetic rats; for End weight, Mean / End weight: last 2 weeks of 8 weeks diabetes; for End weight: individual diabetic rats
Description: as §1, §3

[4] = system: diabetic rats; test: Tactile allodynia, electronic von Frey hair apparatus, diabetic rats; type: in vivo, rat
Description: as §4
Tactile allodynia thresholds for the foot were measured by an electronic von Frey hair apparatus. Latencies for foot withdrawal reflexes to noxious thermal stimulation were estimated by the Hargreaves plantar test (Hargreaves K, Dubner R, Brown F, Flores C, Joris J. A new and sensitive method for measuring thermal nociception in cutaneous hypeialgesia. Pain 1988; 32: 77-88). All tests were carried out using commercially available equipment (Ugo-Basile, Comerio, Italy). […]
Tactile allodynia was estimated on two separate occasions; once on a day before treatment was initiated, and then on the day immediately following the last day of the treatment period. […] Thus, stimulus intensity tracked the threshold, and a run of 6 near-threshold responses was used to estimate the 50% threshold value using lookup tables (Chaplan S R, Bach F W, Pogrel J W, Chung J M, Yaksh T L. Quantitative assessment of tactile allodynia in the rat paw. J Neurosci Meth 1994; 53: 55-63). […]

[5] = system: diabetic rats; test: Thermal hyperalgesia, Hargreaves plantar test, diabetic rats; type: in vivo, rat
Description: as §4
Tactile allodynia thresholds for the foot were measured by an electronic von Frey hair apparatus. Latencies for foot withdrawal reflexes to noxious thermal stimulation were estimated by the Hargreaves plantar test (Hargreaves K, Dubner R, Brown F, Flores C, Joris J. A new and sensitive method for measuring thermal nociception in cutaneous hypeialgesia. Pain 1988; 32: 77-88). All tests were carried out using commercially available equipment (Ugo-Basile, Comerio, Italy). Measurements were made in a constant temperature room at the same time each day, and rats were given a 3-day period for familiarization with handling, the environment, equipment, and experimental procedure.
In a similar way to the assessment of tactile allodynia, thermal sensitivity was also measured on 2 separate occasions, before and after treatment. […] After 30 min acclimatization, a constant power infrared stimulus was focused onto the sole of the foot and the latency for reflex foot withdrawal recorded via a photoelectric monitor. […]

[6] = molecular target: T1, AT1 (h) human recombinant (CHO cells) (Homo sapiens, UniProt P30556); test: AT1 (h) receptor binding assay; conditions: [125I][Sar1, Ile8]-AT II 0.05 nM, 60 min./37° C.; highest tested concentration
T1 construct: expressed in transfected cells; host or cells: CHO cells
T1 sequence (P30556 1-359): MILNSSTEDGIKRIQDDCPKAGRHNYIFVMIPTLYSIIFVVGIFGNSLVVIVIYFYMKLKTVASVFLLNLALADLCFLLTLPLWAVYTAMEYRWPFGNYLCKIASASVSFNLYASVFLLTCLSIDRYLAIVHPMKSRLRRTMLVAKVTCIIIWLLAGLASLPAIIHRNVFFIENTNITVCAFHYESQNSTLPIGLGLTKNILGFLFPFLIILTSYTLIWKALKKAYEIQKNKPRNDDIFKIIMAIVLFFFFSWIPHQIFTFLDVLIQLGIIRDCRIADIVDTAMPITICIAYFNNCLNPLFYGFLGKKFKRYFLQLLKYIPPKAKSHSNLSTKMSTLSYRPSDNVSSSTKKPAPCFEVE
Description: (§5) The specific ligand binding to the receptors is defined as the difference between the total binding and the nonspecific binding determined in the presence of an excess of unlabelled ligand. […] The IC50 values (concentration causing a half-maximal inhibition of control specific binding) and Hill coefficients (nH) were determined by non-linear regression analysis of the competition curves using Hill equation curve fitting. The inhibition constants (Ki) were calculated from the Cheng Prusoff equation (Ki=IC50/(1+(L/KD)), where L=concentration of radioligand in the assay, and KD=affinity of the radioligand for the receptor).

[7] = molecular target: AT2 (h) human recombinant (Hela cells) (Homo sapiens, UniProt P50052); conditions: competition curve, Hill equation curve fitting
Description: as §5

[8] = 1.048 mg/kg daily by oral gavage
[9] = 1.048 mg/kg daily by oral gavage, 28 days
[10] = 0.01048 mg/kg daily by gavage, 0.01048 mg/kg
[11] = 0.0349 mg/kg daily by gavage, 0.0349 mg/kg
[12] = 0.1048 mg/kg daily by gavage, 0.1048 mg/kg
[13] = 1.048 mg/kg daily by gavage, 1.048 mg/kg
[14] = 1.048 mg/kg daily by gavage for 2 weeks
[15] = 1.048 mg/kg by oral gavage, 1 day, before vs after drug

Chain of AT2 (h) human recombinant (Hela cells) (P50052 whole entry): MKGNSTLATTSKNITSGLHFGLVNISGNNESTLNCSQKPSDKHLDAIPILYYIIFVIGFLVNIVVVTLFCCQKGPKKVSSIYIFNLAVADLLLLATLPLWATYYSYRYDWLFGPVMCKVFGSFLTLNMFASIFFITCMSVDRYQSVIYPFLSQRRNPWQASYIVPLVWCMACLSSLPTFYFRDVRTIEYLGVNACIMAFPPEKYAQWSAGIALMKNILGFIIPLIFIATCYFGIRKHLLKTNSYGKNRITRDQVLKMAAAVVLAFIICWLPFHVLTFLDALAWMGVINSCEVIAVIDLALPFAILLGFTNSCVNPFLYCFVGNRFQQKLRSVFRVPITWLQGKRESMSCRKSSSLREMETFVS

COc1ccc2c(c1OCc1ccccc1)C[C@@H](C(=O)O)N(C(=O)C(c1ccccc1)c1ccccc1)C2 [Compound 1 sodium salt, S-2-(diphenylacetyl)-5-benzyloxy-6-methoxy-1,2,3,4-tetrahydroisoquinoline-3-carboxylic acid]
treatment duration after which motor NCV was statistically within the nondiabetic range [1, 8]: 7 days | motor NCV, 28-day treatment group versus 14-day data [1, 9]: entirely comparable with the previously obtained 14-day data | ED50 ([1]; Rattus norvegicus, 336 h, oral, daily for 2 weeks, best fit sigmoid curve, read-out: ED50, correction of sciatic motor NCV deficit): 0.044 mg/kg | Motor NCV, Mean ([1]; 0.01048 mg/kg daily by gavage): 53.25 m/s | Motor NCV, Mean ([1]; 0.0349 mg/kg daily by gavage): 56.68 m/s | Motor NCV, Mean ([1]; 0.1048 mg/kg daily by gavage): 60.51 m/s | Motor NCV, Mean ([1]; 1.048 mg/kg daily by gavage): 63.72 m/s | Motor NCV [1, 10]: 54.92 m/s and 55.17 m/s and 54.10 m/s and 50.78 m/s and 54.03 m/s and 51.60 m/s and 51.96 m/s and 56.90 m/s and 50.70 m/s and 52.38 m/s | Motor NCV [1, 11]: 56.15 m/s and 57.38 m/s and 56.90 m/s and 57.89 m/s and 59.32 m/s and 56.67 m/s and 53.68 m/s and 58.18 m/s and 54.55 m/s and 56.06 m/s | Motor NCV [1, 12]: 59.13 m/s and 61.48 m/s and 60.00 m/s (2×) and 58.62 m/s and 63.63 m/s and 64.15 m/s and 59.02 m/s and 60.78 m/s and 58.33 m/s | Motor NCV [1, 13]: 62.87 m/s and 62.30 m/s and 62.84 m/s and 62.50 m/s and 63.90 m/s and 62.69 m/s and 64.95 m/s and 61.75 m/s and 69.57 m/s and 63.81 m/s | diabetic deficit corrected, saphenous sensory NCV ([2]; 1.048 mg/kg daily by gavage for 2 weeks, p<0.001, vs reference groups): 99.1±5.0% | treatment duration after which sensory NCV was statistically within the nondiabetic range [2, 8]: 3 days | sensory NCV, 28-day treatment group versus 14-day data [2, 9]: entirely comparable with the previously obtained 14-day data | ED50 ([2]; Rattus norvegicus, 336 h, oral, daily for 2 weeks, best fit sigmoid curve, read-out: ED50, correction of saphenous sensory NCV deficit): 0.02 mg/kg | Sensory NCV, Mean ([2]; 0.01048 mg/kg daily by gavage): 53.93 m/s | Sensory NCV, Mean ([2]; 0.0349 mg/kg daily by gavage): 57.25 m/s | Sensory NCV, Mean ([2]; 0.1048 mg/kg daily by gavage): 60.73 m/s | Sensory NCV, Mean ([2]; 1.048 mg/kg daily by gavage): 61.10 m/s | Sensory NCV [2, 10]: 55.47 m/s and 56.07 m/s and 51.59 m/s and 54.39 m/s and 55.30 m/s and 51.82 m/s and 51.85 m/s and 55.81 m/s and 53.85 m/s and 53.19 m/s | Sensory NCV [2, 11]: 57.43 m/s and 57.94 m/s and 55.60 m/s and 59.95 m/s and 56.00 m/s and 57.50 m/s and 55.93 m/s and 57.73 m/s and 57.72 m/s and 56.72 m/s | Sensory NCV [2, 12]: 61.11 m/s and 62.96 m/s and 61.22 m/s and 56.67 m/s and 63.16 m/s and 62.50 m/s (2×) and 63.04 m/s and 58.33 m/s and 55.83 m/s | Sensory NCV [2, 13]: 62.50 m/s (4×) and 60.63 m/s and 60.41 m/s and 60.71 m/s and 57.57 m/s and 60.98 m/s and 60.74 m/s | condition of animals at the end of the experimental period [3, 14]: in good condition and behaviourally alert | condition of animals at the end of the experimental period ([3]; 0.1048, 0.0349 or 0.01048 mg/kg daily by gavage for 2 weeks): in good condition and behaviourally alert | End weight, Mean ([3]; 0.01048 mg/kg daily by gavage): 372 g | End weight, Mean ([3]; 0.0349 mg/kg daily by gavage): 357 g | End weight, Mean ([3]; 0.1048 mg/kg daily by gavage): 369 g | End weight, Mean ([3]; 1.048 mg/kg daily by gavage): 390 g | End weight [3, 10]: 374 g and 436 g and 346 g and 438 g and 349 g and 329 g and 364 g and 385 g and 386 g and 312 g | End weight [3, 11]: 369 g and 427 g and 400 g and 396 g and 332 g and 307 g and 277 g and 327 g and 368 g (2×) | End weight [3, 12]: 398 g and 363 g and 298 g and 315 g and 357 g and 346 g and 392 g and 405 g and 374 g and 440 g | End weight [3, 13]: 429 g and 380 g and 389 g and 393 g and 390 g and 353 g and 366 g and 418 g and 360 g and 425 g | effect on tactile allodynia of only 1 day of treatment (paired Student's t) [4, 15]: significant, albeit partial | treatment duration to full correction of tactile allodynia [4, 8]: 3 days | effect on thermal hyperalgesia of only 1 day of treatment (paired Student's t) [5, 15]: significant, albeit partial | treatment duration to full correction of thermal hyperalgesia [5, 8]: 3 days

COc1ccc2c(c1OCc1ccccc1)C[C@@H](C(=O)O)N(C(=O)C(c1ccccc1)c1ccccc1)C2 [Compound 1, S-2-(diphenylacetyl)-5-benzyloxy-6-methoxy-1,2,3,4-tetrahydroisoquinoline-3-carboxylic acid]
sciatic motor NCV compared with nondiabetic control group (one way ANOVA, Bonferroni test) [1, 14]: not significantly different | reversal of the diabetic deficit, sciatic motor NCV ([1]; 1.048 mg/kg daily by gavage for 2 weeks, vs nondiabetic and diabetic reference groups): 92.6±5.4% | Flags (IC50 determination) [6]: N.C. (Not calculable. IC50 value is not calculable because of less than 25% inhibition at the highest tested concentration.) | nH (Hill coefficient) [7]: 1.3
